Reference: patent US20230270773A1, “METHODS OF TREATING CANCER WITH A STING AGONIST” (Immunesensor Therapeutics, Inc., priority 2019, published 2023)

Tests used:
IFNβ and other cytokines = assay: Cytokine production induced in mice; type: in vivo, C57BL/6 mice
Description: The pharmacokinetic/pharmacodynamic properties of Compound A were evaluated in C57BL/6 mice following dosing by subcutaneous, intramuscular, or intravenous routes of administration. Blood was collected post-dosing for the measurement of Compound A and cytokine levels in plasma.

B16F10 melanoma = B16F10 melanoma syngeneic tumor model; type: in vivo, C57BL/6 mice
Description: To assess therapeutic activity of Compound A, C57BL/6 immune competent mice received subcutaneous implants of B16F10 melanoma cells on the right flank. Five days later, when tumor volumes were between 50 and 100 mm^3, the mice were intratumorally dosed with 0.1, 0.3, or 1.0 µg (equivalent to 0.005, 0.015, or 0.05 mg/kg) of Compound A alone, or in combination with 200 µg of PD-L1 antibody (clone 10F.9G2 available from Bio-X-Cell (catalog # BE0101)). Dosing was repeated every 3-4 days for 4 total doses. […] Once again, the effect was enhanced when Compound A was administered together with the PD-L1 antibody.

[1] = tested on: IFNα, IL-6, TNFα and other cytokines; assay: Plasma cytokine levels in cynomolgus monkeys; type: in vivo; settings: for plasma IFNα levels: male and female
Protein binding in vitro = type: in vitro ADME; settings: human
LL2 (lung cancer) = assay: LL2 PD-L1 antibody-resistant tumor model; type: in vivo, C57BL/6 mice
Description: (§1) Compound A was evaluated alone and in combination with 200 µg of the PD-L1 antibody used in Example 6 in immune checkpoint blockade-resistant tumors. In these studies, mice were implanted with LL2 (lung cancer), 4T1 (breast cancer), AG104Ld (fibrosarcoma), and AG104A (fibrosarcoma) tumors. Following implantation, the animals were dosed intratumorally or subcutaneously with 0.5 mg/kg of Compound A alone or in combination with the PD-L1 antibody, as shown in the table below: […]

[2] = Cynomolgus monkey toxicity and toxicokinetics, subcutaneous (Phases I-III, priming dose); type: in vivo, cynomolgus monkeys
Description: Male and female cynomolgus monkeys were assigned to groups and doses of Compound A were administered. Animals were dosed via subcutaneous injection at a volume of 2 mL/kg. The vehicle control article/diluent was phosphate-buffered saline (PBS).

[3] = tested on: B16 melanoma lung metastasis; assay: B16 melanoma lung metastasis model; type: in vivo, mouse; settings: intratumoral days 5, 8, 11; PD-L1 antibody 200 µg
Description: A B16 melanoma lung metastasis model was used to evaluate the effect of Compound A on tumor metastasis. Compound A was administered intratumorally on days 5, 8, and 11 after tumor inoculation alone or in combination with a PD-L1 antibody (200 µg of the antibody used in Example 6).

AG104A (fibrosarcoma) = assay: AG104A PD-L1 antibody-resistant tumor model; type: in vivo, B6C3F1 mice; settings: Compound A 0.5 mg/kg SC, days 4, 7, 10, 14, 17, 21; PD-L1 antibody 200 µg
Description: as §1

[4] = 1 mg/kg/day, 1.5, 3 and 6 hours postdose

Nc1nc2c(ncn2[C@@H]2O[C@@H]3COP(=O)(O)OC4C(O)[C@H](n5cnc6c(N)ncnc65)O[C@@H]4COP(=O)(O)OC2C3OCC(F)(F)F)c(=O)[nH]1 (stereo partly drawn) [Compound A]
cytokine induction (IFNβ and other cytokines; 0.50 mg/kg): very low levels of cytokines
IFNβ in blood (IFNβ and other cytokines; 3 hours post dosing): High levels of IFNβ
IFNβ levels in blood (IFNβ and other cytokines; 12 hours post dosing): near the BLOQ
cytokine induction (IFNβ and other cytokines; dose levels that showed significant antitumor efficacy): only induced low levels of cytokine
time at which cytokine production was seen (IFNβ and other cytokines; following administration): 3 to 6 h
time to decrease of cytokines to BLOQ (IFNβ and other cytokines; following administration): ≤ 12 h
induction of IFNβ and other cytokines (IFNβ and other cytokines; subcutaneous 0, 0.15, 0.50, 1.50, 5, 15, 50 mg/kg, 3 and 6 hours post injection): dose-dependent induction of IFNβ
efficacious dose range (dose-dependent) (B16F10 melanoma): 0.1 to 10 µg
tumor growth and survival (B16F10 melanoma; 0.005 mg/kg): sufficient to inhibit tumor growth and prolong survival
tumor volume (B16F10 melanoma; Compound A 0.1, 0.3 or 1.0 µg intratumoral, PD-L1 antibody 200 µg, FIG. 3 Panels A-C): significantly reduced tumor volume at all dose levels
survival time (B16F10 melanoma; Compound A 0.1, 0.3 or 1.0 µg intratumoral, PD-L1 antibody 200 µg, FIG. 3 Panels E-G): significantly increased the survival time
tumor growth inhibition (B16F10 melanoma; intratumoral): highly effective in inhibiting tumor growth
tumor growth and survival (B16F10 melanoma; intratumoral, compared to controls): dose-dependent suppression of tumor growth and prolonged survival
lowest dose with decreased tumor growth and prolonged survival (B16F10 melanoma; intratumoral, every 3-4 days, 4 doses (0.1 µg/mice)): 0.005 mg/kg
anti-tumor efficacy (B16F10 melanoma; subcutaneous): also effective
plasma IL-6 levels ([1]; 0.1 mg/kg/day, 3 and 6 hours postdose): Increased plasma levels of IL-6
IP-10 ([1]; 0.1 mg/kg/day, 3 hours post dosing): Slight elevation of IP-10
TNFα levels ([1]; 0.1 mg/kg/day, 6 hours postdose in male, 3 and 6 hours in female): Elevated levels of TNFα
TNFα levels ([1]; 0.1 mg/kg/day, 24 hours post dosing): returned to non-detectable level
IL-6 levels ([1]; 0.1 mg/kg/day, 24 hours postdose): returned to a non-detectable level
plasma IFNα levels ([1]; 0.1 mg/kg/day): did not cause significant increase
plasma IL-6 levels ([1]; 0.6 mg/kg/day, 3 and 6 hours postdose): Increased plasma levels of IL-6
TNFα levels ([1]; 0.6 mg/kg/day, 6 hours postdose in male, 1.5, 3, 6 hours in female): Elevated levels of TNFα
plasma IFNα levels ([1]; 0.6 mg/kg/day): did not cause significant increase
IP-10 ([1]; 0.6 mg/kg/day, throughout the time course): No significant elevation of IP-10
IP-10 level [1, 4]: no increased IP-10 level
TNFα levels [1, 4]: Elevated TNFα levels
IFNα levels ([1]; 1 mg/kg/day, 1.5 and 3 hours postdose): did not cause significant change
IL-6 levels ([1]; 1 mg/kg/day, 3 and 6 hours postdose): Marked increase in IL-6 levels
IFNα levels ([1]; 1 mg/kg/day, 6 hours postdose): elevated levels
IFNα levels ([1]; 3 mg/kg and 10 mg/kg, 12 hours after dosing): decreased 12 hours after dosing, but did not return to pre-dose levels
IFNα levels ([1]; 10 mg/kg group): Higher levels of IFNα
IL-12, G-CSF, and IFNγ levels ([1]; Phase II): sporadic increases
changes in MCP-1 and IP-10 levels ([1]; Phase II): suggestive of an inflammatory response with resolution by 24 hours postdose
plasma IL-1ra, IL-6, and IFNα cytokine levels ([1]; Phase II, 3 mg/kg, 3 and 6 hours): dose-dependent increases
fraction unbound (Protein binding in vitro): 0.511
efficacy (tumor growth and survival) (LL2 (lung cancer); Compound A 0.5 mg/kg IT, days 5, 10, 14, 17, PD-L1 antibody 200 µg): suppressed tumor growth and prolonged mouth survival
tumor growth inhibition (LL2 (lung cancer); intratumoral): highly effective in inhibiting tumor growth
morbidity ([2]; 10 mg/kg/dose, Phase I): Morbidity was observed within 1 day
exposure (mean Cmax, AUC0-2, AUC0-8, AUC0-24) vs dose ([2]; 0.3 to 3 mg/kg/day, Day 1 of Phase II): generally dose-proportional
compound-related findings ([2]; 0.6 or 1.0 mg/kg/day): limited to a transient body temperature increase and mild to moderate clinical and anatomic pathology findings
tolerability ([2]; 3 weekly doses of 0.6 mg/kg without a priming dose): tolerated
tolerability ([2]; 3 weekly doses of 1.0 mg/kg/day preceded by a priming dose of 0.1 mg/kg): tolerated
tolerated dose on escalation ([2]; Phase I, subcutaneous dose escalation): up to 3.0 mg/kg/dose
tolerability ([2]; Phase II, 3 mg/kg in naïve animals): not tolerated and led to clinical observations of morbidity or death within 1 day of dosing
tolerability ([2]; Phase II, 3 weekly administrations of 0.3 mg/kg): tolerated
survival of animals ([2]; Phase III, three weekly doses of 0.6 or 1.0 mg/kg/day): survived until scheduled sacrifice
sex differences in mean Cmax, AUC0-2, AUC0-8, AUC0-24 ([2]; monkeys): less than 2 fold
accumulation ([2]; multiple doses of 0.3 mg/kg/day): No accumulation
dose not tolerated (acute morbidity and/or death) ([2]; naïve animals): ≥ 3.0 mg/kg
cause of acute morbidity and/or death ([2]; ≥ 3.0 mg/kg, naïve animals): pulmonary edema
number of metastases in the lung [3]: dramatically reduced
primary tumor volume [3]: significant reduction in tumor volume
efficacy (tumor growth and survival) (AG104A (fibrosarcoma)): suppressed tumor growth and prolonged mouth survival
